Measurements from patent US12678507B2, “Protein tyrosine kinase 6 (PTK6) degradation / disruption compounds and methods of use” (Icahn School of Medicine at Mount Sinai, priority 2018, dated 2026).

Target: T1, PTK6 (Homo sapiens, UniProt Q13882)
T1 construct: endogenous in cells; host or cells: MDA-MB231 cells (ATCC)
Assay: Western blot of PTK6 protein levels in MDA-MB231 cells
Assay type: cell-based
Settings: MDA-231 (MDA-MB231) cells, 500 nM, 24 hours, Western blot (FIGS. 3-5)
Procedure: FIGS. 2-5. Effects of exemplary compounds on reducing PTK6 protein levels in breast cancer cells. Triple negative MDA-MB231 cells were treated for 24 hours with 500 nM, 2 uM or 2.5 uM of test compound and lysed. Proteins were resolved by SDS/PAGE and immunoblotted with antibody to PTK6 (Santa Cruz, Cell Signaling) or GAPDH loading control (Cell Signaling).
FIG. 13. PTK6 degraders suppress PTK6 expression. MDA-MB231 cells were treated with compounds (500 nM or 1 uM) for 24 hours in monolayer cultures. Cells were lysed and lysates were probed with anti-PTK6 antibody.
MDA-MB231 cells were treated with DMSO or indicated compounds at 2.5 uM, 2 uM or 500 nM for 24 hours.
MDA-MB231 cells were treated with compounds (500 nM or 1 uM) for 24 hours in monolayer cultures. Cells were lysed and lysates were probed with anti-PTK6 antibody.
Cells were lysed in 1% NP-40 lysis buffer containing NaF, Na3VO4, Leupeptin, PMSF, aprotinin, and phosphatase inhibitor (PhosSTOP, Roche) as described previously (Irie et al., 2010). Cleared cell lysates were stored at −80° C. and were analyzed by western analysis as described previously (Irie et al., 2010).

T1 sequence (Q13882 whole entry): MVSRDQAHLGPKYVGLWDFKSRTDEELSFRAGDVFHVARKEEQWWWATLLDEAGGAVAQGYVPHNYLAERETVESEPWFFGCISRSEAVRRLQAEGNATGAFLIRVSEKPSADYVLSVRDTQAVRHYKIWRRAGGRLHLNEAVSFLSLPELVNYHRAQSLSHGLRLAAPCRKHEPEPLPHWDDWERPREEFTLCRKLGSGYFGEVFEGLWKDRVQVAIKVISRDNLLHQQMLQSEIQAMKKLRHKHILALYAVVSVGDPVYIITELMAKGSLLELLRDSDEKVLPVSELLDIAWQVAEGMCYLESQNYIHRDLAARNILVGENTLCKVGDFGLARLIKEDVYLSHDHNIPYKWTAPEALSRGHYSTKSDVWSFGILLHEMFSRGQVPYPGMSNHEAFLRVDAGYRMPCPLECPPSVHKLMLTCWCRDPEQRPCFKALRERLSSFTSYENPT

SMILES | reducing PTK6 protein levels / suppress PTK6 expression
Cc1ncsc1-c1ccc(CNC(=O)[C@@H]2C[C@@H](O)CN2C(=O)[C@@H](NC(=O)CCCCNC(=O)CN2CCN(C(=O)c3ccc(Nc4nc(C5CC5)cn5c(-c6cn[nH]c6)cnc45)c(F)c3)CC2)C(C)(C)C)cc1 [YX39-101, (2S,4R)-1-((S)-2-(5-(2-(4-(4-((6-cyclopropyl-3-(1H-pyrazol-4-yl)imidazo[1,2-a]pyrazin-8-yl)amino)-3-fluorobenzoyl)piperazin-1-yl)acetamido)pentanamido)-3,3-dimethylbutanoyl)-4-hydroxy-N-(4-(4-methylthiazol-5-yl)benzyl)pyrrolidine-2-carboxamide] | effective in reducing PTK6 protein levels
Cc1ncsc1-c1ccc(CNC(=O)[C@@H]2C[C@@H](O)CN2C(=O)[C@@H](NC(=O)CCCCCNC(=O)CN2CCN(C(=O)c3ccc(Nc4nc(C5CC5)cn5c(-c6cn[nH]c6)cnc45)c(F)c3)CC2)C(C)(C)C)cc1 [YX39-102, (2S,4R)-1-((S)-2-(6-(2-(4-(4-((6-cyclopropyl-3-(1H-pyrazol-4-yl)imidazo[1,2-a]pyrazin-8-yl)amino)-3-fluorobenzoyl)piperazin-1-yl)acetamido)hexanamido)-3,3-dimethylbutanoyl)-4-hydroxy-N-(4-(4-methylthiazol-5-yl)benzyl)pyrrolidine-2-carboxamide] | effective in reducing PTK6 protein levels
Cc1ncsc1-c1ccc(CNC(=O)[C@@H]2C[C@@H](O)CN2C(=O)[C@@H](NC(=O)CCCCCCCNC(=O)CN2CCN(C(=O)c3ccc(Nc4nc(C5CC5)cn5c(-c6cn[nH]c6)cnc45)c(F)c3)CC2)C(C)(C)C)cc1 [YX39-104, (2S,4R)-1-((S)-2-(8-(2-(4-(4-((6-cyclopropyl-3-(1H-pyrazol-4-yl)imidazo[1,2-a]pyrazin-8-yl)amino)-3-fluorobenzoyl)piperazin-1-yl)acetamido)octanamido)-3,3-dimethylbutanoyl)-4-hydroxy-N-(4-(4-methylthiazol-5-yl)benzyl)pyrrolidine-2-carboxamide] | effective in reducing PTK6 protein levels
Cc1ncsc1-c1ccc(CNC(=O)[C@@H]2C[C@@H](O)CN2C(=O)[C@@H](NC(=O)CCCCCCCCCNC(=O)CN2CCN(C(=O)c3ccc(Nc4nc(C5CC5)cn5c(-c6cn[nH]c6)cnc45)c(F)c3)CC2)C(C)(C)C)cc1 [YX39-106, (2S,4R)-1-((S)-2-(10-(2-(4-(4-((6-cyclopropyl-3-(1H-pyrazol-4-yl)imidazo[1,2-a]pyrazin-8-yl)amino)-3-fluorobenzoyl)piperazin-1-yl)acetamido)decanamido)-3,3-dimethylbutanoyl)-4-hydroxy-N-(4-(4-methylthiazol-5-yl)benzyl)pyrrolidine-2-carboxamide] | effective in reducing PTK6 protein levels
Cc1ncsc1-c1ccc(CNC(=O)[C@@H]2C[C@@H](O)CN2C(=O)[C@@H](NC(=O)CCCCCCCCCCNC(=O)CN2CCN(C(=O)c3ccc(Nc4nc(C5CC5)cn5c(-c6cn[nH]c6)cnc45)c(F)c3)CC2)C(C)(C)C)cc1 [YX39-107, (2S,4R)-1-((S)-2-(11-(2-(4-(4-((6-cyclopropyl-3-(1H-pyrazol-4-yl)imidazo[1,2-a]pyrazin-8-yl)amino)-3-fluorobenzoyl)piperazin-1-yl)acetamido)undecanamido)-3,3-dimethylbutanoyl)-4-hydroxy-N-(4-(4-methylthiazol-5-yl)benzyl)pyrrolidine-2-carboxamide] | effective in reducing PTK6 protein levels
Cc1ncsc1-c1ccc([C@H](C)NC(=O)[C@@H]2C[C@@H](O)CN2C(=O)[C@@H](NC(=O)COCCOCCOCCNC(=O)CN2CCN(C(=O)c3ccc(Nc4nc(C5CC5)cn5c(-c6cn[nH]c6)cnc45)c(F)c3)CC2)C(C)(C)C)cc1 [YX69-159, (2S,4R)-1-((S)-2-(tert-butyl)-17-(4-(4-((6-cyclopropyl-3-(1H-pyrazol-4-yl)imidazo[1,2-a]pyrazin-8-yl)amino)-3-fluorobenzoyl)piperazin-1-yl)-4,16-dioxo-6,9,12-trioxa-3,15-diazaheptadecanoyl)-4-hydroxy-N-((S)-1-(4-(4-methylthiazol-5-yl)phenyl)ethyl)pyrrolidine-2-carboxamide] | potently suppress PTK6 expression
Cc1ncsc1-c1ccc(CNC(=O)[C@@H]2C[C@@H](O)CN2C(=O)[C@@H](NC(=O)CCCC(=O)N2CCN(C(=O)c3ccc(Nc4nc(C5CC5)cn5c(-c6cn[nH]c6)cnc45)c(F)c3)CC2)C(C)(C)C)cc1 [YX79-10, (2S,4R)-1-((S)-2-(5-(4-(4-((6-cyclopropyl-3-(1H-pyrazol-4-yl)imidazo[1,2-a]pyrazin-8-yl)amino)-3-fluorobenzoyl)piperazin-1-yl)-5-oxopentanamido)-3,3-dimethylbutanoyl)-4-hydroxy-N-(4-(4-methylthiazol-5-yl)benzyl)pyrrolidine-2-carboxamide] | potently suppress PTK6 expression
Cc1ncsc1-c1ccc(CNC(=O)[C@@H]2C[C@@H](O)CN2C(=O)[C@@H](NC(=O)CCOCCC(=O)N2CCN(C(=O)c3ccc(Nc4nc(C5CC5)cn5c(-c6cn[nH]c6)cnc45)c(F)c3)CC2)C(C)(C)C)cc1 [YX79-15, (2S,4R)-1-((S)-2-(3-(3-(4-(4-((6-cyclopropyl-3-(1H-pyrazol-4-yl)imidazo[1,2-a]pyrazin-8-yl)amino)-3-fluorobenzoyl)piperazin-1-yl)-3-oxopropoxy)propanamido)-3,3-dimethylbutanoyl)-4-hydroxy-N-(4-(4-methylthiazol-5-yl)benzyl)pyrrolidine-2-carboxamide] | potently suppress PTK6 expression
O=C1CCC(N2C(=O)c3cccc(NCCOCCOCCOCCC(=O)N4CCN(C(=O)c5ccc(Nc6nc(C7CC7)cn7c(-c8cn[nH]c8)cnc67)c(F)c5)CC4)c3C2=O)C(=O)N1 (centres unmarked) [YX79-37, 4-((2-(2-(2-(3-(4-(4-((6-cyclopropyl-3-(1H-pyrazol-4-yl)imidazo[1,2-a]pyrazin-8-yl)amino)-3-fluorobenzoyl)piperazin-1-yl)-3-oxopropoxy)ethoxy)ethoxy)ethyl)amino)-2-(2,6-dioxopiperidin-3-yl)isoindoline-1,3-dione] | potently suppress PTK6 expression

More lines, now with the values ahead:

reducing PTK6 protein levels / suppress PTK6 expression | SMILES
potently suppress PTK6 expression | Cc1ncsc1-c1ccc(CNC(=O)[C@@H]2C[C@@H](O)CN2C(=O)[C@@H](NC(=O)CCCCC(=O)N2CCN(C(=O)c3ccc(Nc4nc(C5CC5)cn5c(-c6cn[nH]c6)cnc45)c(F)c3)CC2)C(C)(C)C)cc1 [YX79-11, (2S,4R)-1-((S)-2-(6-(4-(4-((6-cyclopropyl-3-(1H-pyrazol-4-yl)imidazo[1,2-a]pyrazin-8-yl)amino)-3-fluorobenzoyl)piperazin-1-yl)-6-oxohexanamido)-3,3-dimethylbutanoyl)-4-hydroxy-N-(4-(4-methylthiazol-5-yl)benzyl)pyrrolidine-2-carboxamide]
potently suppress PTK6 expression | Cc1ncsc1-c1ccc(CNC(=O)[C@@H]2C[C@@H](O)CN2C(=O)[C@@H](NC(=O)CCCCCC(=O)N2CCN(C(=O)c3ccc(Nc4nc(C5CC5)cn5c(-c6cn[nH]c6)cnc45)c(F)c3)CC2)C(C)(C)C)cc1 [YX79-12, (2S,4R)-1-((S)-2-(7-(4-(4-((6-cyclopropyl-3-(1H-pyrazol-4-yl)imidazo[1,2-a]pyrazin-8-yl)amino)-3-fluorobenzoyl)piperazin-1-yl)-7-oxoheptanamido)-3,3-dimethylbutanoyl)-4-hydroxy-N-(4-(4-methylthiazol-5-yl)benzyl)pyrrolidine-2-carboxamide]
potently suppress PTK6 expression | O=C1CCC(N2C(=O)c3cccc(NCCOCCOCCC(=O)N4CCN(C(=O)c5ccc(Nc6nc(C7CC7)cn7c(-c8cn[nH]c8)cnc67)c(F)c5)CC4)c3C2=O)C(=O)N1 (centres unmarked) [YX79-36, 4-((2-(2-(3-(4-(4-((6-cyclopropyl-3-(1H-pyrazol-4-yl)imidazo[1,2-a]pyrazin-8-yl)amino)-3-fluorobenzoyl)piperazin-1-yl)-3-oxopropoxy)ethoxy)ethyl)amino)-2-(2,6-dioxopiperidin-3-yl)isoindoline-1,3-dione]
potently suppress PTK6 expression | Cc1ncsc1-c1ccc(CNC(=O)[C@@H]2C[C@@H](O)CN2C(=O)[C@@H](NC(=O)COCC(=O)N2CCN(C(=O)c3ccc(Nc4nc(C5CC5)cn5c(-c6cn[nH]c6)cnc45)c(F)c3)CC2)C(C)(C)C)cc1 [YX79-40, (2S,4R)-1-((S)-2-(2-(2-(4-(4-((6-cyclopropyl-3-(1H-pyrazol-4-yl)imidazo[1,2-a]pyrazin-8-yl)amino)-3-fluorobenzoyl)piperazin-1-yl)-2-oxoethoxy)acetamido)-3,3-dimethylbutanoyl)-4-hydroxy-N-(4-(4-methylthiazol-5-yl)benzyl)pyrrolidine-2-carboxamide]
potently suppress PTK6 expression | Cc1ncsc1-c1ccc(CNC(=O)[C@@H]2C[C@@H](O)CN2C(=O)[C@@H](NC(=O)COCCOCC(=O)N2CCN(C(=O)c3ccc(Nc4nc(C5CC5)cn5c(-c6cn[nH]c6)cnc45)c(F)c3)CC2)C(C)(C)C)cc1 [YX79-41, (2S,4R)-1-((S)-2-(2-(2-(2-(4-(4-((6-cyclopropyl-3-(1H-pyrazol-4-yl)imidazo[1,2-a]pyrazin-8-yl)amino)-3-fluorobenzoyl)piperazin-1-yl)-2-oxoethoxy)ethoxy)acetamido)-3,3-dimethylbutanoyl)-4-hydroxy-N-(4-(4-methylthiazol-5-yl)benzyl)pyrrolidine-2-carboxamide]
